Patent US20240180138A1, “Heating Transpiration Composition, and Method for Exterminating Harmful Arthropods Using Same” (SUMITOMO CHEMICAL COMPANY, LIMITED, priority 2021, published 2024)

Legend:
Assay type in all cases: in vivo
[1] = target: Common house mosquito (Culex pipiens pallens) female adult insects; assay: Test Example 3: knockdown by burning insect repellent incense in metallic cylinder, 10 minutes; settings: B alone
Description: (§1) Wood powder 75 parts by weight, tab powder 5 parts by weight, lees powder 5 parts by weight, siam powder 10 parts by weight, and tapioca starch powder 5 parts by weight were mixed, and appropriate amount of water was added thereto and the resulting mixture was kneaded thoroughly. The kneaded mixture was molded to a sheet shape, and punched out to a spiral shape, and thereafter, the resulting mixture was dried to make an approximate degree of 7 to 10% by weight of moisture contents to prepare the blank insect repellent incense.
(§2) The acetone solution of the testing compounds that were diluted to make the prescribed concentrations were applied dropwise uniformly to the obtained blank insect repellent incense, and then air-dried to prepare the test formulation.
Common house mosquito (Culex pipiens pallens) female adult insects 20 were placed in the glass tube with 4.5 cm of a diameter and 12 cm of a height, and they were shut in the glass tube by covering the opening parts of the top and the bottom thereof with a nylon net having 16 mesh by a rubber band. […] Ten (10) minutes later, the number of knockdowned (hereinafter, abbreviated as “KD”) individuals were recorded. […]

[2] = target: Common house mosquito (Culex pipiens pallens) female adult insects; assay: Test Example 2: knockdown by burning insect repellent incense in metallic cylinder, 7 minutes; settings: B alone
Description: as §1, §2
Common house mosquito (Culex pipiens pallens) female adult insects 20 were placed in the glass tube with 4.5 cm of a diameter and 12 cm of a height, and they were shut in the glass tube by covering the opening parts of the top and the bottom thereof with a nylon net having 16 mesh by a rubber band. A metallic cylinder with 22 cm of a diameter and 83 cm of the height was installed and set up, and two (2) of the above glass tube in which common house mosquito (Culex pipiens pallens) were placed were installed in the upper opening part and then fixed. The formulation that was prepared according to the above process was set to fire, and set up in the bottom opening part of the metallic cylinder. Seven (7) minutes later, the number of knockdowned (hereinafter, abbreviated as “KD”) individuals were recorded. The experiments were conducted in triple replicates to calculate the KD ratio.

[3] = target: Common house mosquito (Culex pipiens pallens) female adult insects; assay: Test Example 1: knockdown by burning insect repellent incense in metallic cylinder, 6 minutes; settings: B alone, 0.01% in incense
Description: as §1, §2
Common house mosquito (Culex pipiens pallens) female adult insects 20 were placed in the glass tube with 4.5 cm of a diameter and 12 cm of a height, and they were shut in the glass tube by covering the opening parts of the top and the bottom thereof with a nylon net having 16 mesh by a rubber band. […] Six (6) minutes later, the number of individuals of knockdowned common house mosquito (Culex pipiens pallens) were recorded. […]

Structure (SMILES) | KD ratio when used alone ([1]; 0.005%) | KD ratio when used alone ([2]; 0.005%) | KD ratio when used alone ([2]; 0.01%) | KD ratio when used alone [3] | KD ratio when used alone ([1]; 0.01%)
COCc1c(F)c(F)c(COC(=O)C2C(C=C(C)C)C2(C)C)c(F)c1F (centres unmarked) [Dimefluthrin, dimefluthrin] | KD ratio 45.0% | KD ratio 2.7% | KD ratio 68.3% |  | 
C/C=C/C1C(C(=O)OCc2c(F)c(F)c(COC)c(F)c2F)C1(C)C (centres unmarked) [Metofluthrin, metofluthrin] |  |  | KD ratio 75.0% | KD ratio 30.0% | 
CC1(C)[C@H](C=C(Cl)Cl)[C@H]1C(=O)OCc1c(F)c(F)cc(F)c1F [Transfluthrin, transfluthrin] |  | KD ratio 5.0% | KD ratio 10.0% |  | KD ratio 81.7%
